Measured values from patent publication US10105384B2, “Nucleic acids targeting TCTP for use in the treatment of chemo- or hormone-resistant cancers” (INSTITUT NATIONAL DE LA SANTE ET DE LA RECHERCHE MEDICALE …, priority 2010, dated 2018).
d = 2'-deoxy (DNA); r = 2'-OH (RNA)

Columns and labels:
Format in all cases: cell-based, human
PC-3 cells [1] = test: Viability assay by Invitrogen Countess (trypan blue), PC-3 cells
Procedure: PC-3 cells were treated with 70, 100 or 200 nM of TCTP ASO or control. 3 days after, the cells were harvested, combined with 10 μl of trypan blue and counted with Invitrogen Countess. Viability, cell concentration and size were recorded for each sample following the manufacturer's instructions.
(§1) Flow cytometry was used to quantify the percentage of cells in each cell cycle phase three days after the siRNA treatment. After the treatment of PC-3 cells with 5 nM TCTP siRNA for 1 day, the fraction of cells undergoing apoptosis (sub-G1/G0 fraction) was 25% higher after treatment with 5 nM TCTP siRNA compared with scrambled control siRNA (**, P≤0.01; FIG. 6, upper panel). Using TCTP ASO treatment alone, we found an increase of 75% in sub-G0G1 fraction (***, P≤0.001; FIG. 6, middle and bottom panel), enhanced by the 50 nM docetaxel treatment (90% in sub-G0-G1 fraction, ***, P≤0.001). […] The fraction of PC-3 in S phase was 20 to 40% lower after TCTP siRNA or ASO treatments respectively compared to the scrambled controls (FIG. 6). […] The rate of apoptotic PC-3 cells after TCTP silencing with different ASO concentrations was explored with the Invitrogen countess (FIG. 6 and FIG. 7A). PC-3 cells were treated with 70, 100 or 200 nM of TCTP ASO or control. Cells were harvested 3 days after treatment and […] of trypan blue was added before analysis with Invitrogen Countess. […] Moreover, TCTP has been reported to interact with caspase-3, thereby inhibiting caspase-3 activation (Gnanasekar et al., 2009, Int J Oncol. 34:1241-6). In order to investigate the effect of TCTP silencing on caspase-3 cleavage and activity, PC-3 cells were treated daily with 100 nM TCTP or scrambled ASO for 2 days. Cells were harvested 2 days after and proteins were extracted for western blotting with a caspase-3 antibody that recognizes both full-length and cleaved caspase-3.

caspase-3 = test: Caspase-3 cleavage by western blot in PC-3 cells; conditions: not in control treated cells
Procedure: (§2) Western Blot analysis was performed as described previously (Rocchi et al., 2004, Cancer Res. 64:6595-602) with 1:5000 rabbit anti-Hsp27 polyclonal antibody (Assay Designs, Villeurbanne, France), 1:2000 rabbit TCTP polyclonal antibody (Abcam Inc., Cambridge, UK), 1:250 rabbit anti-MSL1v1 polyclonal antibody (Abcam Inc.), 1:500 mouse anti-ubiquitin monoclonal antibody (Santa Cruz Biotechnology Inc., Heidelberg, Germany) or 1:1000 rabbit anti-caspase-3 polyclonal antibody (Cell Signalling Technology Inc., Danvers, USA). Loading levels were normalized using 1:5000 rabbit anti-glyceraldehyde-3-phosphate dehydrogenase polyclonal (Abcam Inc.) or 1:2500 mouse anti-vinculine monoclonal antibodies (Sigma Chemical Co., St Louis, Mo., USA).
Flow cytometry was used to quantify the percentage of cells in each cell cycle phase three days after the siRNA treatment. After the treatment of PC-3 cells with 5 nM TCTP siRNA for 1 day, the fraction of cells undergoing apoptosis (sub-G1/G0 fraction) was 25% higher after treatment with 5 nM TCTP siRNA compared with scrambled control siRNA (**, P≤0.01; FIG. 6, upper panel). Using TCTP ASO treatment alone, we found an increase of 75% in sub-G0G1 fraction (***, P≤0.001; FIG. 6, middle and bottom panel), enhanced by the 50 nM docetaxel treatment (90% in sub-G0-G1 fraction, ***, P≤0.001). […]

TCTP [2] = test: TCTP protein level by Western blot in PC-3 cells treated with siRNA or ASO
Procedure: as §2, with “Mo., USA). […]” for “Mo., USA).”
To determine whether the inhibition of TCTP expression affects CR progression in vitro, ASO- or siRNA-induced inhibition of TCTP expression was determined by Western blot analysis. […] Total RNA was extracted and TCTP levels were analyzed by qRT-PCR. After the normalization of TCTP mRNA with 18S rRNA levels, results were analysed with the 2(-Delta Delta C(T)) Method (FIG. 5A). Each sample was analyzed in triplicate. ** differs from PC-3 transfected with control-siRNA (P≤0.01) and *** with ASO control (P≤0.001) using Statview software.

PC-3 cells [3] = test: Flow cytometry of propidium iodide-stained nuclei (apoptosis, cell cycle), PC-3 cells
Procedure: Flow cytometry of propidium iodide-stained nuclei was performed as described previously (Rocchi et al., 2004, Cancer Res. 64:6595-602). In brief, PC-3 cells were plated at the density of 10^6 cells into 10 cm dishes in DMEM supplemented with 10% FCS. To assess the effect of TCTP inhibition on apoptosis and cell cycle, cells were treated the day after seeding with 5 nM of siRNA TCTP or control and 100 nM of ASO TCTP or scrambled control for 48 h. Cells were then treated with 50 nM of docetaxel. After 24 h, the cells were analyzed for relative DNA content on a dual laser flow cytometer (FACSCalibur, Becton Dickinson Biosciences, Le Pont de Claix, France). Each assay was performed in triplicate.
as §1
PC3 cells were transfected with a TCTP siRNA of SEQ ID NO: 3. Cell proliferation and apoptosis were studied using respectively MTT (3-(4,5-dimethylthiazol-2-yl)-2,5-diphenyl tetrazolium bromure) assay and flow cytometry.
PC3 cells were transfected with a TCTP ASO of SEQ ID NO: 2. Cell proliferation and apoptosis were studied using respectively MTT assay and flow cytometry.

TCTP [4] = test: TCTP mRNA and protein expression tests in LNCaP and PC3 cells
Procedure: TCTP mRNA and protein expression tests were carried out in LNCaP and PC3 cells exposed to a TCTP ASO of SEQ ID NO: 2 or a TCTP siRNA of SEQ ID NO: 3.

Substance | rate of apoptotic cells (PC-3 cells [1]; PC-3, TCTP siRNA) | active cleaved caspase-3 fragments (17-20 kDa) (caspase-3) | inhibition of TCTP protein (TCTP [2]; siRNA at 5 nM) | fraction of cells undergoing apoptosis (sub-G1/G0 fraction) higher than scrambled control siRNA (PC-3 cells [3]; PC-3, 5 nM siRNA for 1 day) [%] | increase of the percentage of apoptotic cells (PC-3 cells [3]; TCTP siRNA, PC3, flow cytometry (summary, FIG. 12)) [%] | fraction of PC-3 in S phase lower than scrambled control (PC-3 cells [3]; siRNA treatment) [%] | expression of TCTP (mRNA and protein) (TCTP [4]) | rate of apoptotic cells (PC-3 cells [1]; PC-3, 70 nM ASO, three days after transfection) [%] | rate of apoptotic cells (PC-3 cells [1]; PC-3, 100 nM ASO, three days after transfection) [%] | rate of apoptotic cells (PC-3 cells [1]; PC-3, 200 nM ASO, three days after transfection) [%] | inhibition of TCTP protein (TCTP [2]; ASO at 100 nM) | fraction of PC-3 in S phase lower than scrambled control (PC-3 cells [3]; ASO treatment) [%] | increase in sub-G0-G1 fraction (PC-3 cells [3]; PC-3, TCTP ASO plus 50 nM docetaxel) [%] | increase in sub-G0G1 fraction (PC-3 cells [3]; PC-3, TCTP ASO treatment alone) [%] | increase of the percentage of apoptotic cells (PC-3 cells [3]; TCTP ASO, PC3, flow cytometry (summary, FIG. 13)) [%]
5′-AACCCGUCCGCGAUCUCCCdGdG-3′ (AACCCGUCCGCGAUCUCCCGG; siRNA; sugars from the 5' end r19 d2, backbone not given here) [TCTP siRNA, from Qiagen] | Same effects | presence of active cleaved caspase-3 fragments | significant inhibition | 25 | 25.8 | 20 | decreases in a significant manner | – | – | – | – | – | – | – | –
5′-ACCAATGAGCGAGTCATCAA-3′ (phosphorothioate backbone, further chemistry not given here) [ASO10] | – | presence of active cleaved caspase-3 fragments | – | – | – | – | decreases in a significant manner | 100 | 200 | 300 | significant inhibition | 40 | 90 | 75 | 70
